IC50 and Urinary glucose data for 22 molecules are collected here from patent US7935674B2, “Indole derivatives” (Mitsubishi Tanabe Pharma Corporation, priority 2005, dated 2011).

The target in assay [1] is T1, human SGLT2 (Homo sapiens, UniProt P31639).
T1 construct: expressed in transfected cells; host or cells: CHOK1 (Chinese hamster ovary) cells, kept under Geneticin selection
T1 sequence (P31639 1-672): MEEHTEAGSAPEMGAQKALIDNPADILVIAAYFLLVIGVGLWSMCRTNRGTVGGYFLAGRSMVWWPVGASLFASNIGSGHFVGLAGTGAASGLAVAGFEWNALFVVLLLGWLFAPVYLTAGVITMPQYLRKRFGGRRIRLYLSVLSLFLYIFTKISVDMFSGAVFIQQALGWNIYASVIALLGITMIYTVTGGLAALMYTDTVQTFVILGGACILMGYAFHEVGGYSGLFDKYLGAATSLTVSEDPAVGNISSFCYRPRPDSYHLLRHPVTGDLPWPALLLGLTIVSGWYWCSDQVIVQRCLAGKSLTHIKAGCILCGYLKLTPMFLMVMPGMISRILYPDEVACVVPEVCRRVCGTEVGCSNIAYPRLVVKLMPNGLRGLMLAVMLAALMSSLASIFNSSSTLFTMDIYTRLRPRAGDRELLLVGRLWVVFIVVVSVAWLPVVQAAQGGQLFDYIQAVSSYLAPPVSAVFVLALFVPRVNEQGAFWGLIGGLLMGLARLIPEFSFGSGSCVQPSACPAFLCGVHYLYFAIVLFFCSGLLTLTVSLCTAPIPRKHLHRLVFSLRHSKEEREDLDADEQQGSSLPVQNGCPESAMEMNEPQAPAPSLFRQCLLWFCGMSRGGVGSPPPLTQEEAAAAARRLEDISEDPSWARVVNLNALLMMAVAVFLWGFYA
Put plainly: Assay for SGLT2 inhibition (14C-AMG uptake in CHOK1 cells expressing human SGLT2). The format is cell-based. Here is the method: 1. Assay for SGLT2 Inhibition
Compounds described in the above examples were used for the SGLT2 inhibition assay.
CHOK1 cells expressing human SGLT2 were seeded in 24-well plates at a density of 400,000 cells/well in F-12 nutrient mixture (Ham's F-12) containing 10% fetal bovine serum, 400 μg/ml Geneticin, 50 units/ml sodium penicillin G (Gibco-BRL) and 50 μg/ml streptomycin sulfate. After 2 days of culture at 37° C. in a humidified atmosphere containing 5% CO2, cells were washed once with the assay buffer (137 mM NaCl, 5 mM KCl, 1 mM CaCl2, 1 mM MgCl2, 50 mM Hepes, and 20 mM Tris, pH 7.4) and incubated with 250 μl of the buffer containing test compounds for 10 min at 37° C. Test compounds were dissolved in DMSO. The final concentration of DMSO was 0.5%. The transport reaction was initiated by addition of 50 μl [^14C]-methyl-α-D-glucopyranoside (^14C-AMG) solution (final concentration, 0.5 mM). After incubation for 2 hours at 37° C., the uptake was stopped by aspiration of the incubation mixture, the cells were washed three times with ice-cold PBS. Then, cells were solubilized with 0.3 N NaOH and aliquots were taken for determination of radioactivity by a liquid scintillation counter. Nonspecific AMG uptake was defined as that which occurred in the presence of 100 μM of phlorizin, a specific inhibitor of sodium-dependent glucose cotransporter. Specific uptake was normalized for the protein concentrations measured by the method of Bradford. The 50% inhibitory concentration (IC50) values were calculated from dose-response curves by least square method.

The subject of assay [2] is Sprague-Dawley (SD) rats. Put plainly: Urinary glucose excretion test in rats. The assay is classed as in vivo, rat. Conditions: male SD rats; 30 mg/kg by oral gavage; urine collected for 24 hours; daily amount of glucose excreted in urine per individual. How it is done:
2. Urinary Glucose Excretion Test in Rats Test Compounds:
Compounds described in the above examples were used for the Urinary glucose excretion test in rats.
6-week-old male Sprague-Dawley (SD) rats were housed in individual metabolic cages with free access to food and water from 2 days prior to the experiment. On the morning of the experiment, rats were administered vehicle (0.2% carboxymethyl cellulose solution containing 0.2% Tween80) or test compounds (30 mg/kg) by oral gavage at a volume of 10 ml/kg. Then, urine of the rat was collected for 24 hours, and the urine volume was measured. Subsequently, the glucose concentration in urine was quantified using the enzymatic assay kit and the daily amount of glucose excreted in urine per individual was calculated.

Where [3] appears, read: CHOK1 cells expressing human SGLT2, 14C-AMG uptake, 0.5 mM, 2 hours at 37° C., read-out: IC50.

Like-named read-outs stand apart in the source and are kept apart here.

One may read the IC50 as the concentration at which inhibition is half-maximal. Regarding `OC[C@H]1O[C@@H](n2cc(Cc3ccc4occc4c3)c3c(Cl)c(F)ccc32)[C@H](O)[C@@H](O)[C@@H]1O` [Example 34, 3-(Benzo[b]furan-5-yl-methyl)-4-chloro-5-fluoro-1-(β-D-gluco-pyranosyl)indole], the IC50 in assay [1] (setting [3]) amounted to 11 nM. The Urinary glucose entry in assay [2] is “B (2400 mg>B≧2000 mg)”.
On to `Cc1cccc2c1c(Cc1ccc3occc3c1)cn2[C@@H]1O[C@H](CO)[C@@H](O)[C@H](O)[C@H]1O` [Example 40, 3-(Benzo[b]furan-5-yl-methyl)-4-methyl-1-(β-D-glucopyranosyl)indole], for which, in assay [1] (setting [3]), the IC50 turned out to be 6.2 nM. The Urinary glucose entry in assay [2] is “B (2400 mg>B≧2000 mg)”.
For the molecule `OC[C@H]1O[C@@H](n2cc(Cc3ccc(OC(F)F)cc3)c3c(F)cccc32)[C@H](O)[C@@H](O)[C@@H]1O` [Example 26, 3-(4-(Difluoromethoxy)phenylmethyl)-4-fluoro-1-(β-D-gluco-pyranosyl)indole], the IC50 in assay [1] (setting [3]) was found to be 11 nM. Also, the Urinary glucose result in assay [2] was “A (A≧2400 mg)”.
In the case of `OC[C@H]1O[C@@H](n2cc(Cc3ccc(I)cc3)c3c(Cl)c(F)ccc32)[C@H](O)[C@@H](O)[C@@H]1O` [Example 37, 4-Chloro-5-fluoro-3-(4-iodophenylmethyl)-1-(β-D-gluco-pyranosyl)indole], the IC50 in assay [1] (setting [3]) was determined as 14 nM. In assay [2], the Urinary glucose entry is given as “B (2400 mg>B≧2000 mg)”.
With `CCOc1ccc(Cc2cn([C@@H]3O[C@H](CO)[C@@H](O)[C@H](O)[C@H]3O)c3cccc(F)c23)cc1` [Example 8, 3-(4-Ethoxyphenylmethyl)-4-fluoro-1-(β-D-glucopyranosyl)-indole], the IC50 in assay [1] (setting [3]) came to 4.8 nM. The Urinary glucose entry in assay [2] is “A (A≧2400 mg)”.
In the case of `OC[C@H]1O[C@@H](n2cc(Cc3ccc(I)cc3)c3c(Cl)cccc32)[C@H](O)[C@@H](O)[C@@H]1O` [Example 33, 4-Chloro-3-(4-iodophenylmethyl)-1-(β-D-glucopyranosyl)-indole], the IC50 in assay [1] (setting [3]) came to 4.1 nM. Also, the Urinary glucose result in assay [2] is reported as “A (A≧2400 mg)”.
The like results for `OC[C@H]1O[C@@H](n2cc(Cc3ccc4occc4c3)c3c(Cl)cc(Cl)cc32)[C@H](O)[C@@H](O)[C@@H]1O` [Example 32, 3-(Benzo[b]furan-5-yl-methyl)-4,6-dichloro-1-(β-D-gluco-pyranosyl)indole] were, in that order, 7.5 nM and “B (2400 mg>B≧2000 mg)”.
The like results for `OC[C@H]1O[C@@H](n2cc(Cc3ccc4occc4c3)c3c(F)cccc32)[C@H](O)[C@@H](O)[C@@H]1O` [Example 20, 3-(Benzo[b]furan-5-yl-methyl)-4-fluoro-1-(β-D-glucopyranosyl) indole] were, in that order, 5.7 nM and “A (A≧2400 mg)”.
For `CCOc1ccc(Cc2cn([C@@H]3O[C@H](CO)[C@@H](O)[C@H](O)[C@H]3O)c3ccc(F)c(Cl)c23)cc1` [Example 35, 4-Chloro-3-(4-ethoxyphenylmethyl)-5-fluoro-1-(β-D-gluco-pyranosyl)indole], in assay [1] (setting [3]), the IC50 came to 9.1 nM. Further, the Urinary glucose result in assay [2] is “A (A≧2400 mg)”.
With `CCc1ccc(Cc2cn([C@@H]3O[C@H](CO)[C@@H](O)[C@H](O)[C@H]3O)c3cccc(F)c23)cc1` [Example 2, 3-(4-Ethylphenylmethyl)-4-fluoro-1-(β-D-glucopyranosyl)-indole], the IC50 in assay [1] (setting [3]) was determined as 5.2 nM. The Urinary glucose result in assay [2] is “A (A≧2400 mg)”.
In the case of `OC[C@H]1O[C@@H](n2cc(Cc3ccc(O)cc3)c3c(Cl)cccc32)[C@H](O)[C@@H](O)[C@@H]1O` [Example 46, 4-Chloro-3-(4-hydroxyphenylmethyl)-1-(β-D-glucopyranosyl)-indole], in assay [1] (setting [3]), the half-maximal inhibitory concentration (IC50) was found to be 2.4 nM. For the same molecule, the Urinary glucose entry in assay [2] is reported as “A (A≧2400 mg)”.
The like results for `OC[C@H]1O[C@@H](n2cc(Cc3ccc(Br)cc3)c3c(Cl)cccc32)[C@H](O)[C@@H](O)[C@@H]1O` [Example 14, 3-(4-Bromophenylmethyl)-4-chloro-1-(β-D-glucopyranosyl)-indole] were, in that order, 8.1 nM and “A (A≧2400 mg)”.
As for `OC[C@H]1O[C@@H](n2cc(Cc3ccc(OCCCl)cc3)c3c(F)cccc32)[C@H](O)[C@@H](O)[C@@H]1O` [Example 13, 3-(4-(2-Chloroethyloxy)phenylmethyl)-4-fluoro-1-(β-D-gluco-pyranosyl)indole], the IC50 in assay [1] (setting [3]) is 6 nM. The Urinary glucose result in assay [2] was “B (2400 mg>B≧2000 mg)”.
With `CCOc1ccc(Cc2cn([C@@H]3O[C@H](CO)[C@@H](O)[C@H](O)[C@H]3O)c3cccc(Cl)c23)cc1` [Example 3, 4-Chloro-3-(4-ethoxyphenylmethyl)-1-(β-D-glucopyranosyl)-indole], the IC50 in assay [1] (setting [3]) was 3.5 nM. In addition, the Urinary glucose result in assay [2] is recorded as “B (2400 mg>B≧2000 mg)”.
For `Cc1cccc2c1c(Cc1ccc(I)cc1)cn2[C@@H]1O[C@H](CO)[C@@H](O)[C@H](O)[C@H]1O` [Example 39, 3-(4-Iodophenylmethyl)-4-methyl-1-(β-D-glucopyranosyl)indole] the same measures were 3.6 nM and “B (2400 mg>B≧2000 mg)”.
Regarding `OC[C@H]1O[C@@H](n2cc(Cc3ccc(I)cc3)c3c(Cl)cc(Cl)cc32)[C@H](O)[C@@H](O)[C@@H]1O` [Example 36, 4,6-Dichloro-3-(4-iodophenylmethyl)-1-(β-D-glucopyranosyl)-indole], in assay [1] (setting [3]), the IC50 was 14 nM. Moreover, the Urinary glucose entry in assay [2] is listed as “B (2400 mg>B≧2000 mg)”.
For `OC[C@H]1O[C@@H](n2cc(Cc3ccc(OC(F)(F)F)cc3)c3c(Cl)cccc32)[C@H](O)[C@@H](O)[C@@H]1O` [Example 29, 4-Chloro-3-(4-(trifluoromethoxy)phenylmethyl)-1-(β-D-gluco-pyranosyl)indole], the IC50 in assay [1] (setting [3]) worked out at 9.6 nM. Moreover, the Urinary glucose entry in assay [2] is on record as “B (2400 mg>B≧2000 mg)”.
Consider `Cc1cccc2c1c(Cc1ccc(Br)cc1)cn2[C@@H]1O[C@H](CO)[C@@H](O)[C@H](O)[C@H]1O` [Example 38, 3-(4-Bromophenylmethyl)-4-methyl-1-(β-D-glucopyranosyl)-indole], for which the IC50 in assay [1] (setting [3]) came to 12 nM. Also, the Urinary glucose result in assay [2] was “B (2400 mg>B≧2000 mg)”.
As for `OC[C@H]1O[C@@H](n2cc(Cc3ccc4occc4c3)c3c(Br)cccc32)[C@H](O)[C@@H](O)[C@@H]1O` [Example 43, 3-(Benzo[b]furan-5-yl-methyl)-4-bromo-1-(β-D-glucopyranosyl)-indole], the IC50 in assay [1] (setting [3]) amounted to 8.4 nM. In assay [2], the Urinary glucose entry is “A (A≧2400 mg)”.
The like results for `OC[C@H]1O[C@@H](n2cc(Cc3ccc(Cl)cc3)c3c(Br)cccc32)[C@H](O)[C@@H](O)[C@@H]1O` [Example 44, 4-Bromo-3-(4-chlorophenylmethyl)-1-(β-D-glucopyranosyl)indole] were, in that order, 20 nM and “B (2400 mg>B≧2000 mg)”.
For `OC[C@H]1O[C@@H](n2cc(Cc3ccc(C(F)F)cc3)c3c(Cl)cccc32)[C@H](O)[C@@H](O)[C@@H]1O` [Example 30, 4-Chloro-3-(4-(difluoromethyl)phenylmethyl)-1-(β-D-gluco-pyranosyl)indole], the IC50 in assay [1] (setting [3]) was 3.2 nM. In addition, in assay [2], the Urinary glucose entry is reported as “A (A≧2400 mg)”.
Regarding `Cc1cccc2c1c(Cc1ccc(C3CC3)cc1)cn2[C@@H]1O[C@H](CO)[C@@H](O)[C@H](O)[C@H]1O` [Example 47, 3-(4-Cyclopropylphenylmethyl)-4-methyl-1-(β-D-gluco-pyranosyl)indole], in assay [1], half-maximal inhibition (IC50) required 1.6 nM. The Urinary glucose entry in assay [2] is “A (A≧2400 mg)”.
